From ChEMBL document CHEMBL6115034, “Pseudonatural Flavonols as Novel Copper Ionophores for NAFLD Intervention via Synergistic Copper Delivery and Flavonoid Activity” (J Med Chem, 2025)
Active and inactive are the calls of the source. No cut-off for these calls is given here.

Experiments:
[1] = Induction of copper transporting activity in human HeLa cells assessed as fold increase in intracellular copper levels at 2 uM incubated for 4 hrs by ICP-MS analysis; format: functional
[2] = test system: HepG2; assay: Cytotoxicity against human HepG2 cells assessed as cell viability at 0.1 to 5 uM measured at 24 hrs by MTT assay; format: functional, cell-based; conditions: dose 0.1-5 µM
[3] = test system: Hepatocyte; assay: Cytotoxicity against mouse Hepatocyte assessed as cell viability at 0.1 to 5 uM measured at 24 hrs by MTT assay; format: toxicity, cell-based; conditions: hepatocytes, dose 0.1-5 µM
[4] = test system: HepG2; assay: Cytotoxicity against human HepG2 cells assessed as cell viability at 0.1 to 5 uM compound administrated as copper complex measured at 24 hrs by MTT assay; format: functional, cell-based; conditions: dose 0.1-5 µM
[5] = test system: Hepatocyte; assay: Cytotoxicity against mouse Hepatocyte assessed as cell viability at 0.1 to 5 uM compound administrated as copper complex measured at 24 hrs by MTT assay; format: toxicity, cell-based; conditions: hepatocytes, dose 0.1-5 µM
[6] = test system: HepG2; assay: Anti-NAFLD activity in palmitic acid human HepG2 NAFLD cell model assessed as cell viability at 0.1 to 0.5 uM compound administrated as copper complex measured at 24 hrs by MTT assay; format: functional, cell-based; conditions: dose 0.1-0.5 µM
[7] = test system: HepG2; assay: Anti-NAFLD activity in palmitic acid human HepG2 NAFLD cell model assessed as increase in ROS level at 5 uM compound administrated as copper complex measured at 24 hrs by DCFH-DA probe based flow cytometry analysis; format: functional

Structure (SMILES): COc1ccc2oc(-c3ccc4cccc(O)c4n3)c(O)c(=O)c2c1
- fold change (FC) [1]: ~5
- Activity [2]: Active
- Activity [3]: Non-toxic
- Activity [4]: Active
- Activity [5]: Non-toxic
- Activity [6]: Active
- Activity [7]: Active

Structure (SMILES): O=c1c(O)c(-c2ccc3c(Cl)ccc(O)c3n2)oc2ccccc12
- fold change (FC) [1]: ~5
- Activity [2]: Active
- Activity [3]: Non-toxic
- Activity [4]: Active
- Activity [5]: Non-toxic
- Activity [6]: Active
- Activity [7]: Active
